Experiment [1] deals with PI3K δ (Homo sapiens, UniProt O00329). In words: PI 3-Kinase HTRF inhibition assay, PI3K δ. Type of experiment: biochemical. Conditions: in vitro. Here is the method: (§1) Commercial kits or systems for assaying PI3-K activities are available. The commercially available kits or systems can be used to screen for inhibitors and/or agonists of PI3-Ks including but not limited to PI 3-Kinase α, β, δ, and γ. Anr exemplary system is PI 3-Kinase (human) HTRF™ Assay from Upstate. […] Briefly, the assay is a time resolved FRET assay that indirectly measures PIP3 product formed by the activity of a PI3-K. The kinase reaction is performed in a microtitre plate (e.g., a 384 well microtitre plate). The total reaction volume is approximately 20 ul per well. In the first step, each well receives 2 ul of test compound in 20% dimethylsulphoxide resulting in a 2% DMSO final concentration. Next, approximately 14.5 ul of a kinase/PIP2 mixture (diluted in 1× reaction buffer) is added per well for a final concentration of 0.25-0.3 ug/ml kinase and 10 μM PIP2. The plate is sealed and incubated for 15 minutes at room temperature. To start the reaction, 3.5 ul of ATP (diluted in 1× reaction buffer) is added per well for a final concentration of 10 μM ATP. The plate is sealed and incubated for 1 hour at room temperature. The reaction is stopped by adding 5 ul of Stop Solution per well and then 5 ul of Detection Mix is added per well. The plate is sealed, incubated for 1 hour at room temperature, and then read on an appropriate plate reader. Data is analyzed and IC50s are generated using GraphPad Prism 5. For PI3K α, β, δ, and γ, the nM conentration of inhibitor to reach IC50 is provided. […] Similar assays, and others known in the art, can be used to measure the percent inhibition of other kinases, including but not limited to PI3K class II kinases, phosphoinositide 4 kinases (PI4K), and phosphoinositide 5 kinases (PI5K).
On the technique in general: TR-FRET usually uses a lanthanide donor and a delayed reading to cut background.

In experiment [2] the target is PI3K β (Homo sapiens, UniProt P42338). In words: PI 3-Kinase HTRF inhibition assay, PI3K β. The format is biochemical. The procedure:
as §1

Experiment [3] addresses PI3K α (Homo sapiens, UniProt P42336). In words: PI 3-Kinase HTRF inhibition assay, PI3K α. The format is biochemical. Conditions: in vitro. The procedure: as §1
Experiment [4] deals with MDA-MB-361. In words: MDA-MB-361 proliferation. The format is cell-based. Conditions: Homo sapiens; in vitro IC50, MDA-MB-361 cells. The procedure:
The ability of one or more subject compounds to inhibit tumor cell line proliferation is determined according to standard procedures known in the art. For instance, an in vitro cellular proliferation assay can be performed to measure the metabolic activity of live cells. The assay is performed in a 96 well microtiter plate using Alamar Blue reduction. Human tumor cell lines are obtained from ATCC (e.g., MCF7, U-87 MG, MDA-MB-468, PC-3), grown to confluency in T75 flasks, trypsinized with 0.25% trypsin, washed one time with Tumor Cell Media (DMEM+10% FBS), and plated in 90 ul at 5,000 cells/well in Tumor Cell Media. A compound disclosed herein is diluted in Tumor Cell Media and added in a 10 ul volume. Plates are incubated for 72 hours at 37 C and 5% CO2. A volume of 10 uL of Alamar Blue reagent is added to each well and plates are incubated for 3 hours at 37 C and 5% CO2. Alamar Blue fluoresce is read at 560 Ex/590 Em, and IC50 values are calculated using GraphPad Prism 5.
Cells comprising one or more mutations in PI3Kα, including but not limited to breast cancer cells (e.g., MDA-MB-361 and T47D), and cells comprising one or more mutations in PTEN including but not limited to prostate cancer cells (e.g., PC3), are typically grown in cell growth media such as DMEM supplemented with fetal bovine serum and/or antibiotics, and grown to confluency. Cells are then treated with various concentrations of test compound for about 2 hours and subsequently lysed in cell lysis buffer. Lysates are subjected to SDS-PAGE followed by Western blot analysis to detect downstream signaling markers, including but not limited to pAKT(S473), pAKT(T308), pS6, and p4E-BP1. Degree of proliferation (and proliferation inhibition) can also be measured for cells at various doses of compound of the present invention.

Experiment [5] has as its target PI3K γ (Homo sapiens, UniProt P48736). In words: PI 3-Kinase HTRF inhibition assay, PI3K γ. Type of experiment: biochemical. Conditions: in vitro.
Setting [6] is: in vitro, read-out: PI3K β IC50.

Read-outs that look alike come from different tables or passages of the source.

Chain of PI3K δ (O00329 whole entry): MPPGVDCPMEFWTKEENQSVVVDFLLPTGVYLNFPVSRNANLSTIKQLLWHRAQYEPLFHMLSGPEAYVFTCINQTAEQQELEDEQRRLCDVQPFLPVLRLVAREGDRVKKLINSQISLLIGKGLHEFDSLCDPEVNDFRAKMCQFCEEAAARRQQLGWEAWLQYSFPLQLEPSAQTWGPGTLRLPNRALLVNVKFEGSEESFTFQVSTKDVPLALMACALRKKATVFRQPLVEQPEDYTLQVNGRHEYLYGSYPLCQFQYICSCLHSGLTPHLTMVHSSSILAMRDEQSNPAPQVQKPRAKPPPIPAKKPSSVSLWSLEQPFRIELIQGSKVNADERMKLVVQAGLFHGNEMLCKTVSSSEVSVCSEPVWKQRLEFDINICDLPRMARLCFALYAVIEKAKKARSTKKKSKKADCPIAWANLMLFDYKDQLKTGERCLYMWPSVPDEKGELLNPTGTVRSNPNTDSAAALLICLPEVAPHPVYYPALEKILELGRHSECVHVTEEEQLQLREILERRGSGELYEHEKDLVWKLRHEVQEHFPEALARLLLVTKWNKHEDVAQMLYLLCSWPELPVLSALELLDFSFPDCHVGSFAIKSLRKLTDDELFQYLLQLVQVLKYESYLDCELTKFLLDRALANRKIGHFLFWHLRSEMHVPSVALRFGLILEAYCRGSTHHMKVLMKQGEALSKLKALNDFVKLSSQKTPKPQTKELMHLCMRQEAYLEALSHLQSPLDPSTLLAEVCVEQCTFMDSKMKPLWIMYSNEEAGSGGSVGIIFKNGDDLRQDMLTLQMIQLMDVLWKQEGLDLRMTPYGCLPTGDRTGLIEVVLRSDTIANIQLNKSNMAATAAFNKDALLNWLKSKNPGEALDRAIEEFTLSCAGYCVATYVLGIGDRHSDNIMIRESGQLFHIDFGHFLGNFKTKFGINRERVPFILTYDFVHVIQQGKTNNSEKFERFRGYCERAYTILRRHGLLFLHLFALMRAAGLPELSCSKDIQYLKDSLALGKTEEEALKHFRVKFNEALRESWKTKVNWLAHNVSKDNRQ
Chain of PI3K δ (P27986 whole entry partner): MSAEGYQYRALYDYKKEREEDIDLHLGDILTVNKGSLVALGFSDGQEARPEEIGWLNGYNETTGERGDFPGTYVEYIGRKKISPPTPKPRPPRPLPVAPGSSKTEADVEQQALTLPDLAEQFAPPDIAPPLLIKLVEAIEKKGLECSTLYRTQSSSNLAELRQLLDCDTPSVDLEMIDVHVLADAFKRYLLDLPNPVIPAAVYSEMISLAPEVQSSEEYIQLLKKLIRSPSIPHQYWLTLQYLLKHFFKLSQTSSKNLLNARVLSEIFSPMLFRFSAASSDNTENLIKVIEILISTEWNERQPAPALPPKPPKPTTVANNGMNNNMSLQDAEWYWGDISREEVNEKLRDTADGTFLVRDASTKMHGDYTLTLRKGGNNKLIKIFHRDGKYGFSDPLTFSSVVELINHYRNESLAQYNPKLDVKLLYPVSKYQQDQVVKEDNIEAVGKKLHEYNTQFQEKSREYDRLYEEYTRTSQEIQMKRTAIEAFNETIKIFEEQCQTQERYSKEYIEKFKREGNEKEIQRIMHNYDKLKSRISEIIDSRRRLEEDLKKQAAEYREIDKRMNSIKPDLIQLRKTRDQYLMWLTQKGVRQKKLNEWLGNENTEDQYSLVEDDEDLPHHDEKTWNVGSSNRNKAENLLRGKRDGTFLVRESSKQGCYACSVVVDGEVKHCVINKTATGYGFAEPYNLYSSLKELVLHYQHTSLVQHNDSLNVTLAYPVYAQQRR
Chain of PI3K α (P42336 whole entry): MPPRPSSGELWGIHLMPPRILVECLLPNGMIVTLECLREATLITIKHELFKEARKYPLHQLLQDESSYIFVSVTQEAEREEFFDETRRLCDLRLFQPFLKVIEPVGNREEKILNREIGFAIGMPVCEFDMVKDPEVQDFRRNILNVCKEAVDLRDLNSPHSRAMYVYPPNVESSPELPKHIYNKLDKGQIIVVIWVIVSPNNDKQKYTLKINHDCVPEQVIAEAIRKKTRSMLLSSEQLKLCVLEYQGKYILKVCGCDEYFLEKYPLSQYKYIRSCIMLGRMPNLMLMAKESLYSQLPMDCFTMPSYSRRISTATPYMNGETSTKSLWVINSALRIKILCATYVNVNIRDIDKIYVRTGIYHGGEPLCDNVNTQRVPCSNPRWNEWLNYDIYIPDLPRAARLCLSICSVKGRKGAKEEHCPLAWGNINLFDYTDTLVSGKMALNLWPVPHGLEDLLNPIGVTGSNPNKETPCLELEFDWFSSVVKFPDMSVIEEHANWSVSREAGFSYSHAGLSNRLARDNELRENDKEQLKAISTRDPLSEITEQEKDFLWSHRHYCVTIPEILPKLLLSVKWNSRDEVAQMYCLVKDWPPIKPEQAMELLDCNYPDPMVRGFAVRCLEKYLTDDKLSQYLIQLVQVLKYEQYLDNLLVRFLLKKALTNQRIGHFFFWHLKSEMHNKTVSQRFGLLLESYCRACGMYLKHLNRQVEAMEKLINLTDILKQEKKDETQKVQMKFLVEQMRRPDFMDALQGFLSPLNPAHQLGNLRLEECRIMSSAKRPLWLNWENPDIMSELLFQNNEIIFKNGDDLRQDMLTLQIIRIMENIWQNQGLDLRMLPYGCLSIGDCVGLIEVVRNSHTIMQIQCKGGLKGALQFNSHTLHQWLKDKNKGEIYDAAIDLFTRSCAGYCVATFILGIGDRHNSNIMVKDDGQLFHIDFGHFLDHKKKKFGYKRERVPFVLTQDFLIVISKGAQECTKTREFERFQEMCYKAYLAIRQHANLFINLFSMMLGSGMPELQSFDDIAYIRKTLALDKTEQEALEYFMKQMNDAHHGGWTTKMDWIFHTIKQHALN
Chain of PI3K α (P27986 whole entry partner): as the sequence (P27986 whole entry partner) above
Chain of PI3K γ (P48736 whole entry): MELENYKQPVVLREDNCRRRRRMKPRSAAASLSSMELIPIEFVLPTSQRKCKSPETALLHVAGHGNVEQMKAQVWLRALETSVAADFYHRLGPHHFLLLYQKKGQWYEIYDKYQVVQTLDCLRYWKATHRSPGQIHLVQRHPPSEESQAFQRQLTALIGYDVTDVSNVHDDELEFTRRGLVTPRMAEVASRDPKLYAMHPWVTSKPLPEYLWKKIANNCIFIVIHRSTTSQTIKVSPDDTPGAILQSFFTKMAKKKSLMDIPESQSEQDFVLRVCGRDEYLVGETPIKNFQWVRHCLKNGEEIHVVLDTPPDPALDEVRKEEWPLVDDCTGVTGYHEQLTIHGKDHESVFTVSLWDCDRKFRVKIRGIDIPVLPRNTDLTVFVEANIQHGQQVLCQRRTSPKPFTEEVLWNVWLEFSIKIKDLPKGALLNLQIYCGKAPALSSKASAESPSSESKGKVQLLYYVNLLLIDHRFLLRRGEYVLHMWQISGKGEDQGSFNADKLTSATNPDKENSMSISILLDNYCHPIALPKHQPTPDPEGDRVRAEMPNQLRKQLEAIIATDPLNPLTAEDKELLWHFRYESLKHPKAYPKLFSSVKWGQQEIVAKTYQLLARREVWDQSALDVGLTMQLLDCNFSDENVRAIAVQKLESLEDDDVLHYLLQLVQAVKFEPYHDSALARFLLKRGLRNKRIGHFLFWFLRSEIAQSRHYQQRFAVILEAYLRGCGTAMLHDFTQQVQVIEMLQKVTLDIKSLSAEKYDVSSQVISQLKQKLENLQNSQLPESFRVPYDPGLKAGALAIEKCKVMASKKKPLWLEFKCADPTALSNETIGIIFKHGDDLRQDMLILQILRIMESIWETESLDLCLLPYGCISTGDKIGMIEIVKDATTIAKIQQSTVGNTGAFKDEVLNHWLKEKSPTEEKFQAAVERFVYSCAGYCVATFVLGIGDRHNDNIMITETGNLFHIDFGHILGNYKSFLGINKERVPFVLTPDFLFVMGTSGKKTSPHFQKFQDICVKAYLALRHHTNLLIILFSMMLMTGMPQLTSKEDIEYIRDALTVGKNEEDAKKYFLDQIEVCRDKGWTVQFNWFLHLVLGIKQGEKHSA
Chain of PI3K β (P42338 whole entry): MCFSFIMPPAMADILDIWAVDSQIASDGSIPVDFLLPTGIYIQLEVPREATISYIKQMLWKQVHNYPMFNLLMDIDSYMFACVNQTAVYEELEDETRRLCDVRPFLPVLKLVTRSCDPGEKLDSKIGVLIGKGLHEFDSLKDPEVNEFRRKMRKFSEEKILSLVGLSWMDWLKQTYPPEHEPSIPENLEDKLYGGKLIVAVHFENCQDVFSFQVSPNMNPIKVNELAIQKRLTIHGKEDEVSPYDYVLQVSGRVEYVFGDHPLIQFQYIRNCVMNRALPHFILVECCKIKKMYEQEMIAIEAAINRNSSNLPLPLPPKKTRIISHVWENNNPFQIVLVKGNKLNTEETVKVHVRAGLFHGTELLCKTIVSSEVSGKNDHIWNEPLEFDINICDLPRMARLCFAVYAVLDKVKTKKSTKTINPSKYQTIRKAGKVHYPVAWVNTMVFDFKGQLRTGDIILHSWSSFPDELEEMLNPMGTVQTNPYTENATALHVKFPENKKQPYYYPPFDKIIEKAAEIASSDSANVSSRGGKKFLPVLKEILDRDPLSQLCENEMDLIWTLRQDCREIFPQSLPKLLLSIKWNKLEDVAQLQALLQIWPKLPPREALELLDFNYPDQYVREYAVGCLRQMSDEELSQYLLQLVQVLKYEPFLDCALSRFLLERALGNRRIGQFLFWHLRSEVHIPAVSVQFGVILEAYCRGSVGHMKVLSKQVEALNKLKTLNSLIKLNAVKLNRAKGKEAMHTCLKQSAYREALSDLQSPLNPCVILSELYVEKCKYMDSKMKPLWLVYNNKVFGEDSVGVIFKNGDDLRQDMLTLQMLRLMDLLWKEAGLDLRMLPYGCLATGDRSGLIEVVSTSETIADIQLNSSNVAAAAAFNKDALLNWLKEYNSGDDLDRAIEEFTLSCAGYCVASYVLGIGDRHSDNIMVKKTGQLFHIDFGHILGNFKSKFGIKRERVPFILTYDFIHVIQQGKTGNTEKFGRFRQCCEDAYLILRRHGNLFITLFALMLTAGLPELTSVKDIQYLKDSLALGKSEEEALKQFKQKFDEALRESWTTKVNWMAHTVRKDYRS
Chain of PI3K β (P27986 whole entry partner): as the sequence (P27986 whole entry partner) above

Usually IC50 stands for the midpoint of a concentration-inhibition curve. With `CC1CN(C2CN(c3cnc4ccc(-c5ccc6oc(N)nc6c5)nc4n3)C2)CCO1` (stereo not drawn) [Compound 18], the IC50 is greater than 10 µM in experiment [1], greater than 10 µM in experiment [2] (setting [6]) and less than 1 µM in experiment [3].
For `Nc1nc2cc(-c3ccc4ncc(N5C6CCC5COC6)nc4n3)ccc2o1` [Compound 19], the concentration for half-maximal inhibition (IC50) in experiment [1] was greater than 10 µM; in experiment [4], less than 1 µM; in experiment [5], less than 0.1 µM; in experiment [2] (setting [6]), greater than 10 µM; in experiment [3], less than 0.1 µM.
On to `Nc1nc2cc(-c3ccc4ncc(N5CC(N6CC7CCC(C6)O7)C5)nc4n3)ccc2o1` [Compound 20], for which the results for the IC50 in experiment [1], in experiment [2] (setting [6]) and in experiment [3] were greater than 10 µM, greater than 10 µM and less than 1 µM, respectively.
In the case of `Nc1nc2cc(-c3ccc4ncc(N5C6CCC5COC6)cc4n3)ccc2o1` [Compound 23], the half-maximal inhibitory concentration (IC50) was greater than 10 µM in experiment [1], less than 0.1 µM in experiment [5] and less than 0.1 µM in experiment [3].
As for `Nc1nc2cc(-c3ccc4ncc(N5CC6CCC(C5)O6)nc4n3)ccc2o1` [Compound 28], the IC50 in experiment [1] was greater than 10 µM; in experiment [4], less than 1 µM; in experiment [5] it was less than 1 µM; in experiment [2] (setting [6]), greater than 10 µM; in experiment [3] it was less than 0.1 µM.
With `Nc1nc2cc(-c3ccc4ncc(N5CC(N6C7CCC6COC7)C5)nc4n3)ccc2o1` [Compound 51], the IC50 in experiment [1], in experiment [5] and in experiment [2] (setting [6]) was greater than 10 µM throughout.
Take `Nc1nc2cc(-c3ccc4ncc(N5CC6CCC(C5)O6)cc4n3)ccc2o1` [Compound 59]: the IC50 was greater than 10 µM in experiment [1]; less than 1 µM in experiment [4]; less than 0.1 µM in experiment [5]; greater than 10 µM in experiment [2] (setting [6]); less than 0.1 µM in experiment [3].
For the compound `Nc1nc2cc(-c3ccc4ncc(N5CC(N6C7CCC6COC7)C5)cc4n3)ccc2o1` [Compound 67], the IC50 is less than 10 µM in experiment [4], less than 1 µM in experiment [5], greater than 10 µM in experiment [2] (setting [6]) and less than 0.1 µM in experiment [3].
In the case of `CN1CC2CN(c3cnc4ccc(-c5ccc6oc(N)nc6c5)nc4c3)CC2C1` (stereo not drawn) [Compound 79], the IC50 is less than 1 µM in experiment [1]; less than 10 µM in experiment [4]; less than 1 µM in experiment [5]; less than 1 µM in experiment [2] (setting [6]); less than 0.1 µM in experiment [3].
Regarding `Nc1nc2cc(-c3cnc4ccc(N5C6CCC5COC6)nc4c3)ccc2o1` [Compound 81], the half-maximal inhibitory concentration (IC50) in experiment [1] and in experiment [2] was greater than 10 µM each time.
For `CN1CCN(C2CN(c3cnc4ccc(-c5ccc6oc(N)nc6c5)nc4c3)C2)CC1(C)C` [Compound 83], the IC50 in experiment [1] was less than 0.1 µM; in experiment [4], less than 0.1 µM; in experiment [5], less than 1 µM; in experiment [2] (setting [6]) it was less than 1 µM; in experiment [3], less than 0.1 µM.
With `CN1CCN(C2CN(c3ccc4ncc(-c5ccc6oc(N)nc6c5)cc4n3)C2)CC1` [Compound 84], the IC50 in experiment [1], in experiment [5] and in experiment [2] (setting [6]) was greater than 10 µM throughout.
Consider `CC(C)N1CCN(C2CN(c3cnc4ccc(-c5ccc6nc(N)[nH]c6c5)nc4c3)C2)CC1` [Compound 85], for which the IC50 in experiment [1] is greater than 10 µM; in experiment [5], greater than 10 µM; in experiment [2] (setting [6]), greater than 10 µM; in experiment [3], less than 0.1 µM.
With `C[C@@H]1CN(C2CN(c3cnc4ccc(-c5ccc6nc(N)[nH]c6c5)nc4c3)C2)CCN1C` [Compound 86], the half-inhibitory concentration (IC50) in experiment [1] was greater than 10 µM; in experiment [5] it was greater than 10 µM; in experiment [2] (setting [6]), greater than 10 µM; in experiment [3], less than 0.1 µM.
On to `CCN1CCN(C2CN(c3cnc4ccc(-c5ccc6nc(N)[nH]c6c5)nc4c3)C2)CC1` [Compound 87], for which the half-inhibitory concentration (IC50) in experiment [1] was greater than 10 µM; in experiment [5], greater than 10 µM; in experiment [2] (setting [6]), greater than 10 µM; in experiment [3] it was less than 0.1 µM.
Take `CN1CCN(C2CN(c3cnc4ccc(-c5ccc6nc(N)[nH]c6c5)nc4c3)C2)CC1` [Compound 88]: the IC50 in experiment [1] is greater than 10 µM; in experiment [5], greater than 10 µM; in experiment [2] (setting [6]), greater than 10 µM; in experiment [3], less than 0.1 µM.
With `C[C@H]1CN(C2CN(c3cnc4ccc(-c5ccc6nc(N)[nH]c6c5)nc4c3)C2)CCN1C` [Compound 89], the concentration for half-maximal inhibition (IC50) in experiment [1] is greater than 10 µM; in experiment [5], greater than 10 µM; in experiment [2] (setting [6]), greater than 10 µM; in experiment [3], less than 0.1 µM.

Values taken from patent US20140323721A1, “HETEROCYCLIC COMPOUNDS AND USES THEREOF” (INTELLIKINE, LLC, priority 2011, published 2014).
